Several values for one entry are separate records, joined by “and”; a condition that tells them apart may be missing. Equal entries are not always repeated. Blank lines part the entries; values can stand above or below the compound they belong to. Residues, ends and D or L forms follow the SMILES beside them.
Columns and labels:
renin [1] = tested on: renin; design: method as in earlier work; details: previously determined ref 8; read-out: IC50 for renin inhibition; cited from earlier work
renin [2] = molecular target: T1, renin (Homo sapiens, UniProt P00797); test: Far-UV circular dichroism of renin-peptide complex; details: for Unordered / α-helix / β-sheet / β-turn: renin
T1 construct: purchased Cayman Chemicals 10006217
T1 sequence (P00797 67-406): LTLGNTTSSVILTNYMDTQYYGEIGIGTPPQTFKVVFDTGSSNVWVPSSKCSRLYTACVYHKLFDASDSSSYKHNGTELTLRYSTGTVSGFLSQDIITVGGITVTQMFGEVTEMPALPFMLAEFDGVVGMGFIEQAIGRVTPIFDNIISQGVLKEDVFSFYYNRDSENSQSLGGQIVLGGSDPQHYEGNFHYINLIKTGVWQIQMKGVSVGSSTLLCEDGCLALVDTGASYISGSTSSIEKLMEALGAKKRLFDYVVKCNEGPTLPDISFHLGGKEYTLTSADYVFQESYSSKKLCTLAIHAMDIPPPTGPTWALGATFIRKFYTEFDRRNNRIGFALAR
Method: (§1) Far-UV CD spectra were obtained using a JASCO J-815 spectropolarimeter (JASCO, Tokyo, Japan) under constant nitrogen flush according to the method of Omoni and Aluko [11]. A 0.5 mm pathlength quartz cell was used for the far UV (190–240 nm) measurements and each final spectrum was the average of three consecutive scans with simultaneous subtraction of the respective buffer, peptides and enzymes spectrum. For determining the peptide-enzyme interaction spectra, 150 µL of 1 U/mL ACE (prepared in 50 mM Tris–HCl buffer, pH 7.5, containing 300 mM NaCl) or 150 µL of 250 µg/mL renin (prepared in 50 mM Tris–HCl buffer, pH 8.0, containing 100 mM NaCl) was mixed with 50 µL of a peptide solution. The far-UV CD spectra in the 200–240 nm range were analyzed for secondary structure fractions using the online DICHROWEB procedure.

renin [3] = molecular target: T1, renin; test: Kinetics of renin inhibition (Lineweaver-Burk); assay type: biochemical; details: for Mode of renin inhibition: double reciprocal plot; for K′m / V′max / Ki: renin; for Ki: secondary plot of Lineweaver-Burk slopes, read-out: Ki (enzyme-inhibitor dissociation constant)
Method: (§2) Kinetics of ACE and renin inhibition was determined using a previously described method. For ACE inhibition, the substrate (FAPGG) concentrations were 0.0625, 0.125, 0.25 and 0.5 mM, while renin substrate concentrations were 1.25, 2.5, 5 and 10 µM. Peptide concentrations used during the assays are shown in Tables 1 and 2 for the kinetics of ACE and renin inhibition, respectively. The modes of ACE and renin inhibition were determined from Lineweaver-Burk plots while inhibition parameters (Vmax and Km) were calculated, respectively, as the Y and X-axis intercepts of the primary plot. Ki was calculated as the X-axis intercept of the line obtained from a secondary plot of Lineweaver-Burk line slopes versus peptide concentrations.

renin [4] = molecular target: T1, renin; test: Intrinsic fluorescence emission of renin with peptides; assay type: binding
Method: Fluorescence emission spectra were obtained using the method of Li et al.. Briefly, 25 µL of 1 U/mL ACE (prepared in 50 mM Tris–HCl buffer, pH 7.5, containing 300 mM NaCl) or 25 µL of 250 µg/mL renin (prepared in 50 mM Tris–HCl buffer, pH 8.0, containing 100 mM NaCl) was mixed with 50 µL of peptide solution and 25 µL of the appropriate buffer to yield a 100 µL assay solution. Emission spectra were recorded at 25°C using a micro quartz cell (100 µL capacity) on a JASCO FP-6300 spectrofluorimeter (JASCO, Tokyo, Japan). ACE or renin assay solutions were excited at 280 nm and emission recorded from 290 to 450 nm. Emission spectrum of the respective buffer, peptides and enzymes was subtracted from the emission spectrum of each assay solution.

Rabbit lung ACE = molecular target: T2, Rabbit lung ACE (Oryctolagus cuniculus, UniProt P12822); test: Kinetics of ACE inhibition (Lineweaver-Burk, FAPGG substrate); assay type: biochemical
T2 construct: Rabbit lung ACE (A6778, 98% purity); purchased Sigma-Aldrich A6778; host or cells: rabbit lung (tissue-derived)
T2 sequence (P12822 34-1310): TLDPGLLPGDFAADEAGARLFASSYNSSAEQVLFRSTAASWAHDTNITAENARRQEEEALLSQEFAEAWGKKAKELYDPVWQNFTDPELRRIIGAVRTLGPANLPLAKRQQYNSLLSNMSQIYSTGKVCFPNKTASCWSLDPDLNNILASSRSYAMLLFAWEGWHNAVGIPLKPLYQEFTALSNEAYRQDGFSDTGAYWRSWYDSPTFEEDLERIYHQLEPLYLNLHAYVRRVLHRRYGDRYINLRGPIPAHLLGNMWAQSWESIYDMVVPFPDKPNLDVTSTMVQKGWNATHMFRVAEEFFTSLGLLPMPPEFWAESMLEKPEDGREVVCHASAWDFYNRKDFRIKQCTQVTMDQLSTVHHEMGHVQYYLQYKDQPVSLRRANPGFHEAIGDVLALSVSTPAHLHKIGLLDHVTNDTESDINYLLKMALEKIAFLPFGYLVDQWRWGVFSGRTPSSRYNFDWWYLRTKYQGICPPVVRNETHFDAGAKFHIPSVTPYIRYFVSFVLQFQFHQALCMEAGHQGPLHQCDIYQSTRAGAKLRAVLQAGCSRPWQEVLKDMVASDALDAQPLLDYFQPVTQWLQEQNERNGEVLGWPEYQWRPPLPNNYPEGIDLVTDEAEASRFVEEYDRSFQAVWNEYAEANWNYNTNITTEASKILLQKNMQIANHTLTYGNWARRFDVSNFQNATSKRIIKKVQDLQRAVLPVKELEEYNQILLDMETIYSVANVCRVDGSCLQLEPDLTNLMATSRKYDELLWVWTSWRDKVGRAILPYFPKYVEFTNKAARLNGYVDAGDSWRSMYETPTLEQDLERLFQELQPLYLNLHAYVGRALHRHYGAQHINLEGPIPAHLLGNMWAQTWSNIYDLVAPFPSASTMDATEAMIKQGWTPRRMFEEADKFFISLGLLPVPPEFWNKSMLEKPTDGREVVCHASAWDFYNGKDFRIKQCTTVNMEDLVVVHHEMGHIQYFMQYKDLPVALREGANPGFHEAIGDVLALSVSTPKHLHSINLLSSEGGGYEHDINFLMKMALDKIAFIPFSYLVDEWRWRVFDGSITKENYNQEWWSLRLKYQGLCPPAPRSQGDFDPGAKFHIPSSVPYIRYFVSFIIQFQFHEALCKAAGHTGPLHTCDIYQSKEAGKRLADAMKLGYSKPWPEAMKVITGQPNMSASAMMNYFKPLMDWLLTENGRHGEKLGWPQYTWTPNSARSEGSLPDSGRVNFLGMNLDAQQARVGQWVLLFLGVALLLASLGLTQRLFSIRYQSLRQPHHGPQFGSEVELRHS
Method: as §2

ACE [5] = tested on: ACE; design: method as in earlier work; details: previously determined ref 8; read-out: IC50 for ACE inhibition; cited from earlier work
ACE [6] = molecular target: T3, ACE (Oryctolagus cuniculus, UniProt P12822); test: Far-UV circular dichroism of ACE-peptide complex; design: species or system Rabbit
T3 construct: Rabbit lung ACE (A6778, 98% purity); purchased Sigma-Aldrich A6778; host or cells: rabbit lung (tissue-derived)
T3 sequence (P12822 34-1310): T2 sequence (P12822 34-1310)
Method: as §1

ACE [7] = details: cited from earlier work

- Unordered (renin [2]; peptide 12.5 µg/mL): 30.37±0.23^F %
- α-helix (renin [2]; peptide 12.5 µg/mL): 4.63±0.12^B %
- β-sheet (renin [2]; peptide 12.5 µg/mL): 44.41±0.61^B %
- β-turn (renin [2]; peptide 12.5 µg/mL): 19.41±0.17^B %
- Unordered (renin [2]; peptide 25 µg/mL): 74.87% and 74.87±0.31^B %
- α-helix (renin [2]; peptide 25 µg/mL): 2.63±0.32^C %
- β-sheet (renin [2]; peptide 25 µg/mL): 4.33±0.32^E %
- β-turn (renin [2]; peptide 25 µg/mL): 19.73±1.45^B %
- Mode of renin inhibition (renin [3]): uncompetitive
- K′m (renin [3]; LY 0.8493 mM): 2.45 µM
- V′max (renin [3]; LY 0.8493 mM): 17.74 FI/min
- K′m (renin [3]; LY 1.6986 mM): 3.11 µM
- V′max (renin [3]; LY 1.6986 mM): 17.63 FI/min
- Ki (renin [3]): 2240 µM
- λmax of renin emission (renin [4]; 0.170 mM peptide): 326 nm
Compound: CC(C)C[C@H](N)C(=O)N[C@@H](Cc1ccc(O)cc1)C(=O)O [LY, Leu-Tyr]
- IC50 (renin [1]): 1870 µM

- Ki (Rabbit lung ACE; ACE, secondary plot of Lineweaver-Burk slopes, read-out: Ki (enzyme-inhibitor dissociation constant)): 104 µM
- Ki (renin [3]): 285 µM
Compound: CC(C)C[C@H](NC(=O)[C@H](C)NC(=O)[C@@H](N)CCCNC(=N)N)C(=O)N1CCC[C@H]1C(=O)O [RALP, Arg-Ala-Leu-Pro] (H-RALP-OH)

- K′m (Rabbit lung ACE; ACE, TF 0.1887 mM): 1.0088 mM
- V′max (Rabbit lung ACE; ACE, TF 0.1887 mM): 0.0185 ΔA/min
- K′m (Rabbit lung ACE; ACE, TF 0.7510 mM): 0.5546 mM
- V′max (Rabbit lung ACE; ACE, TF 0.7510 mM): 0.0097 ΔA/min
- Mode of ACE inhibition (Rabbit lung ACE; Lineweaver-Burk plots): mixed-type
- Factor of increase of unordered fraction in renin (renin [2]; 0.094 mM peptide): 2.25
- Factor of reduction of β-sheet fraction in renin (renin [2]; 0.094 mM peptide): ~6
- Unordered (renin [2]; peptide 12.5 µg/mL): 28.91±0.25^G %
- α-helix (renin [2]; peptide 12.5 µg/mL): 2.91±0.26^C %
- β-sheet (renin [2]; peptide 12.5 µg/mL): 46.97±0.31^A %
- β-turn (renin [2]; peptide 12.5 µg/mL): 21.37±0.06^A %
- Unordered (renin [2]; peptide 25 µg/mL): 72.25±0.21^C %
- α-helix (renin [2]; peptide 25 µg/mL): 0.95±0.07^D %
- β-sheet (renin [2]; peptide 25 µg/mL): 7.91±0.85^D %
- β-turn (renin [2]; peptide 25 µg/mL): 18.95±0.21^B %
- Mode of renin inhibition (renin [3]): non-competitive
- K′m (renin [3]; TF 0.9387 mM): 4.78 µM
- V′max (renin [3]; TF 0.9387 mM): 25.89 FI/min
- K′m (renin [3]; TF 3.7551 mM): 4.41 µM
- V′max (renin [3]; TF 3.7551 mM): 17.20 FI/min
- Unordered (ACE [6]; peptide 12.5 µg/mL): 22.31±2.25^E %
- α-helix (ACE [6]; peptide 12.5 µg/mL): 16.55±0.49^B %
- β-sheet (ACE [6]; peptide 12.5 µg/mL): 41.67±2.17% and 41.67±2.17^A %
- β-turn (ACE [6]; peptide 12.5 µg/mL): 16.97±0.31^C %
- Unordered (ACE [6]; peptide 25 µg/mL): 39.9±1.56^B %
- α-helix (ACE [6]; peptide 25 µg/mL): 13.43±0.72^C %
- β-sheet (ACE [6]; peptide 25 µg/mL): 29.17±0.86% and 29.17±0.86^B %
- β-turn (ACE [6]; peptide 25 µg/mL): 17.33±0.64^C %
- λmax of renin emission (renin [4]; 0.047 mM peptide, 328.5 nm without peptide): 326 nm
- λmax of renin emission (renin [4]; 0.094 mM peptide, 328.5 nm without peptide): 327 nm
- Decrease in FI (renin [4]; renin paragraph (printed ACE FI), LY at 0.170 mM, concentration for TF, RALP not given): 47%
Compound: C[C@@H](O)[C@H](N)C(=O)N[C@@H](Cc1ccccc1)C(=O)O [TF, Thr-Phe] (H-Thr-Phe-OH; N-terminus and C-terminus assumed)
- IC50 (ACE [5]): 810 µM
- IC50 (renin [1]): 3060 µM

Compound: AWLHPGAPKVF
- Mode of ACE inhibition (ACE [7]): competitive

Compound: FEDYVPLSCF
- Mode of ACE inhibition (ACE [7]): mixed-type

Compound: FNVPLYE
- Mode of ACE inhibition (ACE [7]): mixed-type

Compound: RMLGQTP
- Mode of ACE inhibition (ACE [7]): mixed-type

From publication PMC3946342, “Evaluating Molecular Mechanism of Hypotensive Peptides Interactions with Renin and Angiotensin Converting Enzyme” (PLoS ONE, 2014)
